We go through six molecules from patent US20230128889A1, “REL/RELA/SPOT SMALL MOLECULES MODULATORS AND SCREENING METHODS” (priority 2020, published 2023).

One series concerns Rel synthetase (ST). Kind of series: Inhibition of Rel synthetase activity: (p)ppGpp production from GDP or GTP and radioactive ATP, TLC. It is filed as biochemical. Particulars: enzyme with GDP or GTP and radioactive ATP, absence or presence of compound. On the procedure: (§1) As indicated above, the “Yes/No” in the 5th and 6th columns of TABLES A to F indicates whether there is, or respectively is not an inhibition of the synthetase (ST) and/or hydrolase (HD) activity. […] The action of a candidate compound is evaluated based on its effect on the production of (p)ppGpp. Therefore, in order to assess the potential influence of a candidate compound on synthesis activity, the enzyme was mixed with GDP or GTP and radioactive ATP to produce (p)ppGpp in absence or presence of the candidate compound. Subsequently, the reaction is developed by thin layer chromatography (TLC). In an alternative assay that enables determining the effect of a compound on the hydrolysis activity, radioactive (p)ppGpp is incubated with the enzyme and any decrease of the (p)ppGpp spot on TLC is evaluated when the assay is conducted in presence of the compound and compared to control conditions where no candidate compound is added during incubation.

The next series concerns Rel hydrolase (HD). As to the kind of experiment: Inhibition of Rel hydrolase activity: decrease of radioactive (p)ppGpp spot on TLC. The note with it: radioactive (p)ppGpp incubated with enzyme, with vs without compound. Type of series: biochemical. On the procedure: as §1
The test system of another series is full-length RelTt. As to the kind of experiment: ppGpp synthesis (synthase) activity of full-length RelTt and variants, 3H-labeled GDP. It is filed as biochemical, T. thermophilus. Also noted: Synthase activity, Substrate: GDP + ATP, RelTt + IC / Synthase activity, Substrate: GDP + ATP, RelTt + IC + tRNA^Val: unit not given here. Particulars: 40° C.; for Synthase activity, Substrate: GDP + ATP, RelTt + IC + tRNA^Val: with 70S IC and deacylated tRNA^Val; for Synthase activity, Substrate: GDP + ATP, RelTt + IC: with T. thermophilus 70S IC. The procedure:
FIG. 1. Biochemical characterization of full-length RelTt. (a) Hydrolysis activity of 100 nM full-length RelTt was assayed in the presence of 0.5 mM 3H-labeled ppGpp substrate either at 4° C. or 40° C. Synthetic activity of 30 nM full-length RelTt was assayed at 40° C. in the presence of either 1 mM ATP (b) or 1 mM APPNP (c), as well 0.3 mM of 3H-labeled GDP and 0.1 mM ppGpp. As indicated on the figure, the reactions were supplemented with 120 nM T. thermophilus 70S IC(MV) added either alone or in combination with 2 μM deacylated E. coli tRNAVal. All experiments were performed in HEPES:Polymix buffer, pH 7.5, 5 mM Mg^2+, either in the presence (a) or absence (b and c) of 0.5 mM Mn^2+. Error bars represent Standard deviations of the turnover estimates by linear regression.

With `O=C(Cc1ccc(Cl)cc1)Nc1ccc(-c2ccc(NC(=O)Cc3ccc(Cl)cc3)c(C(=O)O)c2)cc1C(=O)O` [Compound 72], the “ST (inhibition of the synthetase activity)” value with Rel synthetase (ST) is reported as “Yes”. Further, the “HD (inhibition of the hydrolase activity)” value in the series with Rel hydrolase (HD) is recorded as “Yes”.

As to `Cc1c(Cc2ccccc2)c(=O)oc2cc(OCC(=O)O)ccc12` [Compound 10], in the series on Rel synthetase (ST), the “ST (inhibition of the synthetase activity)” value is listed as “Yes”. Moreover, the “HD (inhibition of the hydrolase activity)” value in the series on Rel hydrolase (HD) is “No”.

On to `O=C(O)C1Cc2ccccc2CN1C(=O)Cn1nnc2ccccc21` (stereo not shown) [Compound 6], for which the “ST (inhibition of the synthetase activity)” value in the series on Rel synthetase (ST) is given as “No”. For the same molecule, the “HD (inhibition of the hydrolase activity)” value with Rel hydrolase (HD) was “Yes”.

For `O=C1Nc2ccccc2/C1=N\c1cccc([N+](=O)[O-])c1` [Compound 39], the “ST (inhibition of the synthetase activity)” value with Rel synthetase (ST) was “Yes”. Moreover, the “HD (inhibition of the hydrolase activity)” value in the series with Rel hydrolase (HD) is recorded as “No”.

B1: R249A D272A: RelTt with substitutions R249A and D272A (protein)
chain: MVGADLGLWNRLEPALAYLAPEERAKVREAYRFAEEAHRGQLRRSGEPYITHPVAVAEILAGLQMDADTVAAGLLHDTVEDCGVAPEELERRFGPTVRRIVEGETKVSKLYKLANLEGEERRAEDLRQMFIAMAEDVRIIIVKLADRLHNLRTLEHMPPEKQKRIAQETLEIYAPLAHRLGMGQLKWELEDLSFRYLHPEAFASLSARIQATQEARERLIQKAIHLLQETLARDELLQSQLQGFEVTGAPKHLYSIWKKMEREGKTLEQIYALLAVRVILDPKPAPTRESQALREKQVCYHVLGLVHALWQPIPGRVKDYIAVPKPNGYQSLHTTVIALEGLPLEVQIRTREMHRVAEYGIAAHWLYKEGLTDPEEVKRRVSWLKSIQEWQKEFSSSREFVEAVTKDLLGGRVFVFTPKGRIINLPKGATPVDFAYHIHTEVGHHMVGAKVNGRIVPLSYELQNGEIVEILTSKNAHPSKGWLEFAKTRSAKSKIRQYFRAQERQETLERGQHLLERYLKRRGLPKPTDSQLEEAAKRLSLPPSPEELYLALALNRLTPRQVAEKLYPKALLKPEKPKPQVRNEWGIRLEQDLQAPIRLASCCEPMKGDPILGFVTRGRGVTVHRADCPNLRRLLQGPEADRVIGAYWEGVGGKVVVLEVLAQDRAGLLRDVMQVVAEAGKSALGSETRVLGPLARIRLRLAVQDGEEERILQAVQKVSGVKEARWA
On to B1, for which, in the series on full-length RelTt, the “Synthase activity, Substrate: GDP + ATP, RelTt + IC + tRNA^Val” value is on record as 12.0 ± 2.0 and the “Synthase activity, Substrate: GDP + ATP, RelTt + IC” value was determined as 8.5 ± 1.0.

B2: R249A R277A: RelTt with substitutions R249A and R277A (protein)
chain: MVGADLGLWNRLEPALAYLAPEERAKVREAYRFAEEAHRGQLRRSGEPYITHPVAVAEILAGLQMDADTVAAGLLHDTVEDCGVAPEELERRFGPTVRRIVEGETKVSKLYKLANLEGEERRAEDLRQMFIAMAEDVRIIIVKLADRLHNLRTLEHMPPEKQKRIAQETLEIYAPLAHRLGMGQLKWELEDLSFRYLHPEAFASLSARIQATQEARERLIQKAIHLLQETLARDELLQSQLQGFEVTGAPKHLYSIWKKMEREGKTLEQIYDLLAVAVILDPKPAPTRESQALREKQVCYHVLGLVHALWQPIPGRVKDYIAVPKPNGYQSLHTTVIALEGLPLEVQIRTREMHRVAEYGIAAHWLYKEGLTDPEEVKRRVSWLKSIQEWQKEFSSSREFVEAVTKDLLGGRVFVFTPKGRIINLPKGATPVDFAYHIHTEVGHHMVGAKVNGRIVPLSYELQNGEIVEILTSKNAHPSKGWLEFAKTRSAKSKIRQYFRAQERQETLERGQHLLERYLKRRGLPKPTDSQLEEAAKRLSLPPSPEELYLALALNRLTPRQVAEKLYPKALLKPEKPKPQVRNEWGIRLEQDLQAPIRLASCCEPMKGDPILGFVTRGRGVTVHRADCPNLRRLLQGPEADRVIGAYWEGVGGKVVVLEVLAQDRAGLLRDVMQVVAEAGKSALGSETRVLGPLARIRLRLAVQDGEEERILQAVQKVSGVKEARWA
B2: the “Synthase activity, Substrate: GDP + ATP, RelTt” value in the series with full-length RelTt (enzyme alone, triplicate) is on record as 2.6 ± 0.6. Moreover, in the series on full-length RelTt, the “Synthase activity, Substrate: GDP + ATP, RelTt + IC + tRNA^Val” value worked out at 10.5 ± 1.8 and the “Synthase activity, Substrate: GDP + ATP, RelTt + IC” value stood at 8.6 ± 2.
